Laboratory results as given in ChEMBL document CHEMBL1124285, “Conformational analysis and structural comparisons of (1R,3S)-(+)- and (1S,3R)-(-)-tefludazine, (S)-(+)- and (R)-(-)-octoclothepin, and (+)-dexclamol in relation to dopamine receptor antagonism and amine-uptake inhibition” (J Med Chem, 1988).

Legend:
[1] = species: Rattus norvegicus; assay: Inhibition of [3H]-dopamine uptake in rat brain synaptosomes; type: functional, organism-based
[2] = species: Rattus norvegicus; assay: Inhibition of [3H]norepinephrine uptake in rat brain synaptosomes; type: functional, organism-based
[3] = biological target: D(2) dopamine receptor (Rattus norvegicus, UniProt P61169); assay: Binding affinity against Dopamine receptor D2 using [3H]spiroperidol
Chain of D(2) dopamine receptor (P61169 whole entry): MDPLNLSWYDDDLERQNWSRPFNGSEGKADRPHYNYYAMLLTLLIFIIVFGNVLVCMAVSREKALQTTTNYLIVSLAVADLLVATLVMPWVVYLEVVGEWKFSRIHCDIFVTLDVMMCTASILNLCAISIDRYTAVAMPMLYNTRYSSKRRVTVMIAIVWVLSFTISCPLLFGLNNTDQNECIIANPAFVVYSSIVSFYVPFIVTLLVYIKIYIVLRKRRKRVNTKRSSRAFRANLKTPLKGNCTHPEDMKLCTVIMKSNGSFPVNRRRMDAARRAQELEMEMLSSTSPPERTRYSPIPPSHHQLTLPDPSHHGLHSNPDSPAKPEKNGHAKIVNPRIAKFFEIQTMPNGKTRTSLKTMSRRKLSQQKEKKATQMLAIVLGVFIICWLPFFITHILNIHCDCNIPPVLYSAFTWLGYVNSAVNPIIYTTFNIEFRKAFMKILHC

Row | Compound | IC50 [1] | IC50 [2] | IC50 ([1]; Rattus norvegicus, Brain, 3 h) | IC50 ([2]; Rattus norvegicus, Brain, 3 h) | IC50 [3]
1 | (-)-BUTACLAMOL | 9500 nM | 7400 nM | – | – | –
2 | OCCN1CCN([C@@H]2C[C@@H](c3ccc(F)cc3)c3ccc(C(F)(F)F)cc32)CC1 [TEFLUDAZINE] | – | – | 2200 nM | 15000 nM | 14 nM
3 | OCCN1CCN([C@H]2C[C@H](c3ccc(F)cc3)c3ccc(C(F)(F)F)cc32)CC1 | – | – | 130 nM | 730 nM | 590 nM
4 | CC(C)[C@]1(O)CCN2C[C@H]3c4ccccc4CCc4cccc(c43)[C@@H]2C1 | – | – | – | – | 6 nM

Second part, the compound after the results:

Row | IC50 [1] | IC50 [2] | IC50 ([1]; Rattus norvegicus, Brain, 3 h) | IC50 ([2]; Rattus norvegicus, Brain, 3 h) | IC50 [3] | Compound
5 | – | – | 6300 nM | 0.64 nM | – | CN1CCN(C2Cc3ccccc3Sc3ccc(Cl)cc32)CC1 (racemic) [CLOROTEPINE]
6 | – | – | – | – | 900 nM | CC(C)[C@@]1(O)CCN2C[C@@H]3c4ccccc4CCc4cccc(c43)[C@H]2C1 [DEXCLAMOL]
